Data as given in ChEMBL document CHEMBL3992552, “Mechanisms of action and structure-activity relationships of cytotoxic flavokawain derivatives” (Bioorg Med Chem, 2017).
Active and inactive are the calls of the source. The rule behind the calls is not given here.

Legend:
[1] = test system: HCT-116; experiment: Cytotoxicity against human HCT116 cells assessed as cell survival at 50 uM after 48 hrs by Hoechst 33342 staining based assay relative to control; format: functional; conditions: HCT-116, 48 h, read-out: Survival
[2] = test system: NCI-H727; experiment: Cytotoxicity against human NCI-H727 cells assessed as cell survival at 50 uM after 48 hrs by Hoechst 33342 staining based assay relative to control; format: functional; conditions: NCI-H727, 48 h, read-out: Survival
[3] = test system: PC-3; experiment: Cytotoxicity against human PC3 cells assessed as cell survival at 50 uM after 48 hrs by Hoechst 33342 staining based assay relative to control; format: functional; conditions: PC-3, 48 h, read-out: Survival
[4] = test system: HaCaT; experiment: Cytotoxicity against human HaCaT cells assessed as cell survival at 50 uM after 48 hrs by Hoechst 33342 staining based assay relative to control; format: functional; conditions: read-out: Survival
[5] = test system: Huh-7; experiment: Cytotoxicity against human HuH7 cells assessed as cell survival at 50 uM after 48 hrs by Hoechst 33342 staining based assay relative to control; format: functional; conditions: Huh-7, 48 h, read-out: Survival
[6] = test system: MDA-MB-231; experiment: Cytotoxicity against human MDA-MB-231 cells assessed as cell survival at 50 uM after 48 hrs by Hoechst 33342 staining based assay relative to control; format: functional; conditions: MDA-MB-231, 48 h, read-out: Survival
[7] = Cytotoxicity against human fibroblasts assessed as cell survival at 50 uM after 48 hrs by Hoechst 33342 staining based assay relative to control; parameters: species or system Fibroblast; conditions: read-out: Survival
[8] = test system: Caco-2; experiment: Cytotoxicity against human Caco2 cells assessed as cell survival at 50 uM after 48 hrs by Hoechst 33342 staining based assay relative to control; format: functional; conditions: Caco-2, 48 h, read-out: Survival
[9] = test system: Huh-7; experiment: Cytotoxicity against human HuH7 cells assessed as cell viability after 48 hrs by Hoechst 33342 staining based assay; format: functional; conditions: Huh-7, 48 h
[10] = Selectivity index, ratio of IC50 for human fibroblasts to IC50 for human HuH7 cells
[11] = Selectivity index, ratio of IC50 for human fibroblasts to IC50 for human MCF7 cells
[12] = Selectivity index, ratio of IC50 for human fibroblasts to IC50 for human NCI-H727 cells
[13] = Selectivity index, ratio of IC50 for human fibroblasts to IC50 for human HaCaT cells
[14] = test system: NCI-H727; experiment: Cytotoxicity against human NCI-H727 cells assessed as cell viability after 48 hrs by Hoechst 33342 staining based assay; format: functional; conditions: NCI-H727, 48 h
[15] = Selectivity index, ratio of IC50 for human fibroblasts to IC50 for human HCT116 cells
[16] = test system: MCF7; experiment: Cytotoxicity against human MCF7 assessed as cell viability after 48 hrs by Hoechst 33342 staining based assay; format: functional; conditions: MCF7, 48 h
[17] = Selectivity index, ratio of IC50 for human fibroblasts to IC50 for human Caco2 cells
[18] = test system: HCT-116; experiment: Cytotoxicity against human HCT116 cells assessed as cell viability after 48 hrs by Hoechst 33342 staining based assay; format: functional; conditions: HCT-116, 48 h
[19] = test system: Caco-2; experiment: Cytotoxicity against human Caco2 cells assessed as cell viability after 48 hrs by Hoechst 33342 staining based assay; format: functional; conditions: Caco-2, 48 h
[20] = test system: RL; experiment: Cytotoxicity against human RL assessed as cell viability after 48 hrs by Hoechst 33342 staining based assay; format: functional
[21] = Selectivity index, ratio of IC50 for human fibroblasts to IC50 for human PC3 cells
[22] = test system: MDA-MB-231; experiment: Cytotoxicity against human MDA-MB-231 cells assessed as cell viability after 48 hrs by Hoechst 33342 staining based assay; format: functional; conditions: MDA-MB-231, 48 h
[23] = test system: HaCaT; experiment: Cytotoxicity against human HaCaT cells assessed as cell viability after 48 hrs by Hoechst 33342 staining based assay; format: functional
[24] = Selectivity index, ratio of IC50 for human fibroblasts to IC50 for human MDA-MB-231 cells
[25] = test system: Fibroblast; experiment: Cytotoxicity against human fibroblasts assessed as cell viability after 48 hrs by Hoechst 33342 staining based assay
[26] = test system: PC-3; experiment: Cytotoxicity against human PC3 cells assessed as cell viability after 48 hrs by Hoechst 33342 staining based assay; format: functional; conditions: PC-3, 48 h
[27] = Selectivity index, ratio of IC50 for human fibroblasts to IC50 for human RL cells
[28] = test system: HCT-116; experiment: Induction of apoptosis in human HCT116 cells harboring wild-type p53 assessed as upregulation of cyclinB1 measured after 48 hrs by Hoechst staining based assay; format: functional, cell-based
[29] = test system: MDA-MB-231; experiment: Induction of apoptosis in human MDA-MB-231 cells harboring p53 mutant assessed as increase in cleaved caspase3 at 2 times IC50 after 24 hrs by Hoechst staining based assay; format: functional, cell-based
[30] = test system: HCT-116; experiment: Induction of apoptosis in human HCT116 cells harboring wild-type p53 assessed as increase in early apoptosis at 2 times IC50 after 48 hrs by YoPro/propidium iodide/Hoechst staining based assay; format: functional, cell-based
[31] = test system: HCT-116; experiment: Induction of apoptosis in human HCT116 cells harboring wild-type p53 assessed as increase in cleaved caspase3 at 2 times IC50 after 48 hrs by Hoechst staining based assay; format: functional, cell-based
[32] = test system: PC-3; experiment: Induction of apoptosis in human PC3 cells harboring p53 mutant assessed as increase in early apoptosis at 2 times IC50 after 48 hrs by YoPro/propidium iodide/Hoechst staining based assay; format: functional, cell-based
[33] = test system: MCF7; experiment: Induction of apoptosis in human MCF7 cells harboring wild-type p53 assessed as increase in late apoptosis at 2 times IC50 after 24 hrs by YoPro/propidium iodide/Hoechst staining based assay; format: functional, cell-based
[34] = test system: MDA-MB-231; experiment: Induction of apoptosis in human MDA-MB-231 cells harboring p53 mutant assessed as upregulation of cyclinB1 after 18 hrs by Hoechst staining based assay; format: functional, cell-based
[35] = test system: MCF7; experiment: Induction of apoptosis in human MCF7 cells harboring wild-type p53 assessed as increase in early apoptosis at 2 times IC50 after 24 hrs by YoPro/propidium iodide/Hoechst staining based assay; format: functional, cell-based
[36] = test system: HCT-116; experiment: Induction of apoptosis in human HCT116 cells harboring wild-type p53 assessed as upregulation of p21 measured after 48 hrs by Hoechst staining based fluorescence assay; format: functional, cell-based
[37] = test system: MCF7; experiment: Induction of apoptosis in human MCF7 cells harboring wild-type p53 assessed as upregulation of cyclinB1 measured after 18 hrs by Hoechst staining based assay; format: functional, cell-based
[38] = test system: PC-3; experiment: Induction of apoptosis in human PC3 cells harboring p53 mutant assessed as increase in cleaved caspase3 at 2 times IC50 after 48 hrs by Hoechst staining based assay; format: functional, cell-based
[39] = test system: PC-3; experiment: Induction of apoptosis in human PC3 cells harboring p53 mutant assessed as increase in late apoptosis at 2 times IC50 after 48 hrs by YoPro/propidium iodide/Hoechst staining based assay; format: functional, cell-based
[40] = test system: MDA-MB-231; experiment: Induction of apoptosis in human MDA-MB-231 cells harboring p53 mutant assessed as increase in early apoptosis at 2 times IC50 after 24 hrs by YoPro/propidium iodide/Hoechst staining based assay; format: functional, cell-based
[41] = test system: HCT-116; experiment: Induction of apoptosis in human HCT116 cells harboring wild-type p53 assessed as increase in late apoptosis at 2 times IC50 after 48 hrs by YoPro/propidium iodide/Hoechst staining based assay; format: functional, cell-based
[42] = test system: MCF7; experiment: Induction of apoptosis in human MCF7 cells harboring wild-type p53 assessed as upregulation of p21 measured after 48 hrs by Hoechst staining based fluorescence assay; format: functional, cell-based
[43] = test system: PC-3; experiment: Induction of apoptosis in human PC3 cells harboring p53 mutant assessed as upregulation of cyclinB1 after 48 hrs by Hoechst staining based assay; format: functional, cell-based
[44] = test system: MDA-MB-231; experiment: Induction of apoptosis in human MDA-MB-231 cells harboring p53 mutant assessed as increase in late apoptosis at 2 times IC50 after 24 hrs by YoPro/propidium iodide/Hoechst staining based assay; format: functional, cell-based

## COc1ccc(/C=C/C(=O)c2c(O)cc(OC)cc2OC)cc1 [FLAVOKAWAIN A]
[1]
  viability at 50 µM: 20%
[2]
  viability at 50 µM: 40%
[3]
  viability at 50 µM: 43%
[4]
  viability at 50 µM: 35%
[5]
  viability at 50 µM: 50%
[6]
  viability at 50 µM: 58%
[7]
  viability at 48 h, 50 µM: 67%
[8]
  viability at 50 µM: 32%

## COc1cc(O)c(C(=O)/C=C/c2ccc(N(C)C)cc2)c(OC)c1
[1]
  viability at 50 µM: > 80%
[2]
  viability at 50 µM: > 80%
[3]
  viability at 50 µM: > 80%
[4]
  viability at 50 µM: > 80%
[5]
  viability at 50 µM: > 80%
[6]
  viability at 50 µM: > 80%
[7]
  viability at 48 h, 50 µM: > 80%
[8]
  viability at 50 µM: > 80%

## COc1cc(O)c(C(=O)/C=C/c2ccc(C(=O)O)cc2)c(OC)c1
[1]
  viability at 50 µM: > 80%
[2]
  viability at 50 µM: > 80%
[3]
  viability at 50 µM: > 80%
[4]
  viability at 50 µM: > 80%
[5]
  viability at 50 µM: > 80%
[6]
  viability at 50 µM: > 80%
[7]
  viability at 48 h, 50 µM: > 80%
[8]
  viability at 50 µM: > 80%

## COc1cc(OC)c(C(=O)/C=C/c2ccccc2OC)c(OC)c1
[9]
  IC50: 9.8 µM
[10]
  Ratio IC50: 0.8
[11]
  Ratio IC50: 0.9
[12]
  Ratio IC50: 2.1
[13]
  Ratio IC50: 0.9
[14]
  IC50: 4 µM
[1]
  viability at 50 µM: 0%
[15]
  Ratio IC50: 2
[16]
  IC50: 8.9 µM
[2]
  viability at 50 µM: 1%
[3]
  viability at 50 µM: 32%
[17]
  Ratio IC50: 1.8
[4]
  viability at 50 µM: 23%
[5]
  viability at 50 µM: 6%
[18]
  IC50: 4.2 µM
[19]
  IC50: 4.5 µM
[20]
  IC50: 9 µM
[21]
  Ratio IC50: 1
[22]
  IC50: 13 µM
[23]
  IC50: 8.7 µM
[24]
  Ratio IC50: 0.6
[25]
  IC50: 8.2 µM
[6]
  viability at 50 µM: 11%
[7]
  viability at 48 h, 50 µM: 77%
[26]
  IC50: 8.1 µM
[8]
  viability at 50 µM: 5%
[27]
  Ratio IC50: 0.9

## COc1cc(O)c(C(=O)/C=C/c2ccc(Cl)cc2)c(OC)c1
[1]
  viability at 50 µM: > 80%
[2]
  viability at 50 µM: > 80%
[3]
  viability at 50 µM: > 80%
[4]
  viability at 50 µM: > 80%
[5]
  viability at 50 µM: > 80%
[6]
  viability at 50 µM: > 80%
[7]
  viability at 48 h, 50 µM: > 80%
[8]
  viability at 50 µM: > 80%

## COc1cc(OC)c(C(=O)/C=C/c2ccc(C(=O)O)cc2)c(OC)c1
[1]
  viability at 50 µM: 7%
[2]
  viability at 50 µM: 23%
[3]
  viability at 50 µM: 39%
[4]
  viability at 50 µM: 59%
[5]
  viability at 50 µM: 38%
[6]
  viability at 50 µM: 68%
[7]
  viability at 48 h, 50 µM: 57%
[8]
  viability at 50 µM: 25%

## COc1cc(OC)c(C(=O)/C=C/c2ccc(O)cc2)c(OC)c1
[1]
  viability at 50 µM: 17%
[2]
  viability at 50 µM: 42%
[3]
  viability at 50 µM: 33%
[4]
  viability at 50 µM: 16%
[5]
  viability at 50 µM: 45%
[6]
  viability at 50 µM: 32%
[7]
  viability at 48 h, 50 µM: 65%
[8]
  viability at 50 µM: 24%

## COc1cc(O)c(C(=O)/C=C/c2ccc(Br)cc2)c(OC)c1
[28]
  Activity: inactive
[29]
  Activity: inactive
[30]
  Activity: inactive
[31]
  Activity: inactive
[32]
  Activity: inactive
[33]
  Activity: inactive
[34]
  Activity: inactive
[1]
  viability at 50 µM: > 80%
[2]
  viability at 50 µM: 72%
[3]
  viability at 50 µM: 58%
[4]
  viability at 50 µM: 66%
[35]
  Activity: inactive
[36]
  Activity: inactive
[5]
  viability at 50 µM: > 80%
[37]
  Activity: inactive
[38]
  Activity: inactive
[39]
  Activity: inactive
[40]
  Activity: inactive
[41]
  Activity: inactive
[42]
  Activity: inactive
[43]
  Activity: inactive
[44]
  Activity: inactive
[6]
  viability at 50 µM: > 80%
[7]
  viability at 48 h, 50 µM: > 80%
[8]
  viability at 50 µM: > 80%
